From ChEMBL document CHEMBL1201862, “PubChem BioAssay data set” (2004)
Active and inactive are the calls of the source. No rule for the calls is given here.

Target: T1, Exodeoxyribonuclease V (Escherichia coli (strain K12), UniProt P04993+P07648+P08394)
T1 sequence (P04993 whole entry): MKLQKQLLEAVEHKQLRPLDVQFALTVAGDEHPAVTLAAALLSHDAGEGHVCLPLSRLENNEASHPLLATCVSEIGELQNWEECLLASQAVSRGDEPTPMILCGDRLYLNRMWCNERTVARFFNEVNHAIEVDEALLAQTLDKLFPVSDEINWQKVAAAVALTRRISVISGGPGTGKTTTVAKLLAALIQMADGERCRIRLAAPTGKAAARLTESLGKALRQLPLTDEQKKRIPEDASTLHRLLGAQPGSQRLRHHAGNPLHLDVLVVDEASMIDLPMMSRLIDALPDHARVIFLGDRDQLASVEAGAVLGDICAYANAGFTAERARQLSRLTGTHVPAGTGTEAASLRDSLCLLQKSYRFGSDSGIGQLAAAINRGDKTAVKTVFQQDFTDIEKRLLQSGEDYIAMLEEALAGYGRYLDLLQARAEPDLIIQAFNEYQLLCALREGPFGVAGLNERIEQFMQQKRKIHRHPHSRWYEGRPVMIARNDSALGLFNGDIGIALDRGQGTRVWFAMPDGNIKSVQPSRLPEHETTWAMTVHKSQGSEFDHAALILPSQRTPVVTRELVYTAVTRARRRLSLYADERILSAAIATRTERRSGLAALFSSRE
T1 sequence (P07648 whole entry): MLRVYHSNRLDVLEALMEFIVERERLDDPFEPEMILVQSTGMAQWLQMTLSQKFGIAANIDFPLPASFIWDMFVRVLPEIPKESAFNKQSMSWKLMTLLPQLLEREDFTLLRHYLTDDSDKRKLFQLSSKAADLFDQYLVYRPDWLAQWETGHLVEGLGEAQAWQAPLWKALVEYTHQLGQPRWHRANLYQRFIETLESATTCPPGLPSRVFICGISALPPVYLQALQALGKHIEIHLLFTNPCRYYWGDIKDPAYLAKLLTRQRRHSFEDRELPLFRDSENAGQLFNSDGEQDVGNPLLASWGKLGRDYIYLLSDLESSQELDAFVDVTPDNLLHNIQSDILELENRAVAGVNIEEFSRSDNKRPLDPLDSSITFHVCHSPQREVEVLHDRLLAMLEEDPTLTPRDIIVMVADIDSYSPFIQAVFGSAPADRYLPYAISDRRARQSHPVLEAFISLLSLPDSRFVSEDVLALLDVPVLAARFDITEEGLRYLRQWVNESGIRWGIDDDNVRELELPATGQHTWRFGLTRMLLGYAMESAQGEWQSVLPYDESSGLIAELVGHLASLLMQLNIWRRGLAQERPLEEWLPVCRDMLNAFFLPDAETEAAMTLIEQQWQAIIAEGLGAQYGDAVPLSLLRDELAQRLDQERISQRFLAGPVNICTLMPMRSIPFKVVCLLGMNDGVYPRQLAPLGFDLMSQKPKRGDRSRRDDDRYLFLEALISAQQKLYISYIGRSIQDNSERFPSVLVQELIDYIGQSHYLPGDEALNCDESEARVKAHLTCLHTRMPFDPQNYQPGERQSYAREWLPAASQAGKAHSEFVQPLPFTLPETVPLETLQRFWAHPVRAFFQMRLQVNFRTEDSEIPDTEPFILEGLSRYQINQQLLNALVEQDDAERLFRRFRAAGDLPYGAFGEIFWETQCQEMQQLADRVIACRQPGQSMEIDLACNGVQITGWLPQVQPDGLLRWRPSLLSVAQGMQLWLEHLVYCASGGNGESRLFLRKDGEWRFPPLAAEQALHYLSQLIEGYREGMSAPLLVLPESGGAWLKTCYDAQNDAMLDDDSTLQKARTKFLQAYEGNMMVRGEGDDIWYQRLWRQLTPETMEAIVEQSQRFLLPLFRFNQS
T1 sequence (P08394 whole entry): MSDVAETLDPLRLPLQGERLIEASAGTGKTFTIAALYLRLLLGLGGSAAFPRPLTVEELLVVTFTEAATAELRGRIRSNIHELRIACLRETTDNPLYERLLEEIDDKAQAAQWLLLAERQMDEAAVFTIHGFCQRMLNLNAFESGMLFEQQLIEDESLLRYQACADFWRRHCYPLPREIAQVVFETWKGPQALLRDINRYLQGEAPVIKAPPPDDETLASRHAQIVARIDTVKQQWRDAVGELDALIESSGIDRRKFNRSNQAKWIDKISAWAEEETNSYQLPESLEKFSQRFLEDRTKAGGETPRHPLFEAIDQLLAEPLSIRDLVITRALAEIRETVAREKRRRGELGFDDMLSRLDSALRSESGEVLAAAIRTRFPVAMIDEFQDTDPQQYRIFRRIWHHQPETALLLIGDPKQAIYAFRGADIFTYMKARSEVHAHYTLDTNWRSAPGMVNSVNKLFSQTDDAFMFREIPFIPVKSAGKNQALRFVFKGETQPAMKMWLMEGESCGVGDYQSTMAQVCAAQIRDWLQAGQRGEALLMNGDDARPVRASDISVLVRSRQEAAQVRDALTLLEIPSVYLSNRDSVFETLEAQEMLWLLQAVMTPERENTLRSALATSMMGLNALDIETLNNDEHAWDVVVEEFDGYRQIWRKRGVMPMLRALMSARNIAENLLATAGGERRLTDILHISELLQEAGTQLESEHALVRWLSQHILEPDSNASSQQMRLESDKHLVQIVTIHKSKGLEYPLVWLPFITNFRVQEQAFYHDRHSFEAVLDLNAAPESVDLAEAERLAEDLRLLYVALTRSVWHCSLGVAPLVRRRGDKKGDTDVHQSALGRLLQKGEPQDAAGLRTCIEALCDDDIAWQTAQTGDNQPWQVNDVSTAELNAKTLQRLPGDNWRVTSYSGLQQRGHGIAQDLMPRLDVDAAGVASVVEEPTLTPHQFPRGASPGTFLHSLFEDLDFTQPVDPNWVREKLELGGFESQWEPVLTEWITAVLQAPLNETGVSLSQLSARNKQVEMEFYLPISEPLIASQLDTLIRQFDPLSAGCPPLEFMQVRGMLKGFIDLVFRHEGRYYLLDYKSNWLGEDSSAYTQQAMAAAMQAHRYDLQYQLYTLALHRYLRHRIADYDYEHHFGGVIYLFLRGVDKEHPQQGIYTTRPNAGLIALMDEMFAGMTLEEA
Assay: RecBCD inhibition via phage-restricted bacterial growth – absorbance, V66 E. coli, mutant T4 phage, counter-screen for AddAB inhibitor project, dose response (AID 492957)
Type: functional, cell-based, Escherichia coli str. K-12 substr. MG1655

In the case of `CN1CCc2cc3c(c4c2[C@H]1[C@H](O)c1ccccc1-4)OCO3`, the IC50 is reported as > 119 µM (inactive).
